# From patent US20240299559A1, “COMPOUNDS THAT MEDIATE PROTEIN DEGRADATION AND METHODS OF USE THEREOF” (Monte Rosa Therapeutics, Inc., priority 2021, published 2024)
# pKi: −log10 of the molar value.
# Columns and labels:
# CRBN-DDB1 = CRBN-DDB1 (Homo sapiens, UniProt Q96SW2); test: Compound binding to CRBN by HTRF assay; conditions: CRBN-DDB1 2.5 nM, Cy5-Thalidomide 100 nM probe; Ki from geometric mean of IC50 by Cheng-Prustoff transformation
# Description: Compound activity was monitored in a Homogenous Time-Resolved Fluorescence (HTRF) assay using 1-[5-({2-[2-(2-{[2-(2,6-dioxopiperidin-3-yl)-1,3-dioxo-2,3-dihydro-1H-isoindol-4-yl]oxy}acetamido)ethoxy]ethyl}carbamoyl)pentyl]-3,3-dimethyl-2-[(1E,3E)-5-[(2E)-1,3,3-trimethyl-5-sulfo-2,3-dihydro-1H-indol-2-ylidene]penta-1,3-dien-1-yl]-3H-indol-1-ium-5-sulfonate as a fluorescent probe. Biochemical assays were conducted in Greiner white 384 well HiBase plates (Cat. No 784075-25) in 10 μL total volume. A one pot detection solution of CRBN-DDB1 (2.5 nM), Anti-His Terbium Cryptate Gold (1×, PerkinElmer Cat. #: 61HI2TLB), and Cy5-Thalidomide (100 nM, Tenova Cat.: T52461) was prepared in 20 mM HEPES, 20 mM NaCl, 0.2 mM TCEP, 0.2 mM EDTA, and 0.005% Tween20 was dispensed to each assay plate. Compounds were stored in dry, ambient temperatures at 10 mM. A 10-point, 1:3 dilution series was prepared from 10 mM stock concentrations in Echo-compatible LDV plates. 10 nL of each compound dilution series was dispensed into assays wells using an Echo 650 (Labcyte inc. USA). 10 nL of 10 mM Lenalidomide was transferred into the active-control wells for the assay and 10 nL of DMSO was transferred into the neutral-control wells. The assay was then allowed to incubate for 30 min at ambient temperature after transferring compound. Plate measurements were taken on a Pherastar FSX (BMG Labtech, Germany) using the HTRF Red filter (Ex. 337 nm, em1:620 nm, em2:665 nm) (Flashes: 50, Integration time: 60-400 us, Z-height: 10 mm, Ratio-multipler: 10,000). The HTRF signal was then subsequently normalized to the neutral and active controls. Analysis and IC50 values were derived using KNIME analytics (KNIME Zurich) transformation and fitting within Collaborative Drug Discovery (Collaborative Drug Discovery USA). Ki was derived from the geometric mean of the IC50 values using the Cheng-Prustoff transformation.
# CDK2 = target: T1, CDK2 (Homo sapiens, UniProt P24941); test: CDK2 HiBiT assay (degradation, Dmax); assay type: cell-based; conditions: HEK293 clonal lines with CRISPR KI HiBiT tag on CDK2, stably expressing LgBiT; 24 hours incubation
# T1 construct: HEK293 clonal lines with CRISPR KI HiBiT tag on CDK2 proteins; host or cells: HEK293 clonal line with CRISPR knock-in HiBiT on CDK2, stably expressing LgBiT
# Description: HEK293 clonal lines with CRISPR KI HiBiT tag on CDK2 proteins and stably expressing LgBiT protein were obtained from Promega (Madison, WI). Cells were plated at 5000 cells per well using Multiflo (BioTek) in 384-well white solid bottom plates (Corning, 3570BC) in 25 ul volume in DMEM media (DMEM, high glucose, HEPES, no phenol red (ThermoFisher Scientific, 21063029)) containing 10% FBS (Corning, 35-075-CV), 1% Penicillin/Streptomycin (ThermoFisher Scientific, 15140-122). Cells were incubated for 16 hours at 37° C., 5% CO2. 75 nL of a compound at 30 μM were dosed into the plate using an Echo® 650 liquid handler (Labcyte). Cells were incubated at 37° C., 5% CO2 for 24 hours. 5 ul of HiBiT Lysis Reagent (Promega, N3030) is added using Combi Multidrop (ThermoFisher Scientific), plates are incubated for 15′ at 37° C., 5% CO2 and then signal was read on a Pherastar FSX using “LUM plus” optic module.
# Analysis was performed in Scinamic (Scinamic, Cambridge, MA). Luminescence response (R) was calculated by the formula: response=100*(S−N)/(P−N) where S is the signal of the well, N and P the mean negative and positive control values respectively of the same plate. The luminescence response was then fitted in Scinamic using a 3-parameter agonist logistic fit (hillslope=1, EC50>0, top/bottom unconstrained).
# Sequence of CRBN-DDB1 (Q96SW2 whole entry): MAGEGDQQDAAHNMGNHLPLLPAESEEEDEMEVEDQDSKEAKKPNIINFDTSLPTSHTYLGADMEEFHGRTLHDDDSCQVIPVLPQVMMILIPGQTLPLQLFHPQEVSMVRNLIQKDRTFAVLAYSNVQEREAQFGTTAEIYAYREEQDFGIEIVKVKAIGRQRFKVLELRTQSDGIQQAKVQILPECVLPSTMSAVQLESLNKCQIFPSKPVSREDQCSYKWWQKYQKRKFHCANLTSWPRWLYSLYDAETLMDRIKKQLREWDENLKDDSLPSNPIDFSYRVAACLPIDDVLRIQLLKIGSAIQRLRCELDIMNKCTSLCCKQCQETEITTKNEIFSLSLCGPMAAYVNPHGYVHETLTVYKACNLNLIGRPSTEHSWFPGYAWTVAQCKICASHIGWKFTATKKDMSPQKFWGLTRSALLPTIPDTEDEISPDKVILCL
# Sequence of CRBN-DDB1 (Q16531 whole entry partner): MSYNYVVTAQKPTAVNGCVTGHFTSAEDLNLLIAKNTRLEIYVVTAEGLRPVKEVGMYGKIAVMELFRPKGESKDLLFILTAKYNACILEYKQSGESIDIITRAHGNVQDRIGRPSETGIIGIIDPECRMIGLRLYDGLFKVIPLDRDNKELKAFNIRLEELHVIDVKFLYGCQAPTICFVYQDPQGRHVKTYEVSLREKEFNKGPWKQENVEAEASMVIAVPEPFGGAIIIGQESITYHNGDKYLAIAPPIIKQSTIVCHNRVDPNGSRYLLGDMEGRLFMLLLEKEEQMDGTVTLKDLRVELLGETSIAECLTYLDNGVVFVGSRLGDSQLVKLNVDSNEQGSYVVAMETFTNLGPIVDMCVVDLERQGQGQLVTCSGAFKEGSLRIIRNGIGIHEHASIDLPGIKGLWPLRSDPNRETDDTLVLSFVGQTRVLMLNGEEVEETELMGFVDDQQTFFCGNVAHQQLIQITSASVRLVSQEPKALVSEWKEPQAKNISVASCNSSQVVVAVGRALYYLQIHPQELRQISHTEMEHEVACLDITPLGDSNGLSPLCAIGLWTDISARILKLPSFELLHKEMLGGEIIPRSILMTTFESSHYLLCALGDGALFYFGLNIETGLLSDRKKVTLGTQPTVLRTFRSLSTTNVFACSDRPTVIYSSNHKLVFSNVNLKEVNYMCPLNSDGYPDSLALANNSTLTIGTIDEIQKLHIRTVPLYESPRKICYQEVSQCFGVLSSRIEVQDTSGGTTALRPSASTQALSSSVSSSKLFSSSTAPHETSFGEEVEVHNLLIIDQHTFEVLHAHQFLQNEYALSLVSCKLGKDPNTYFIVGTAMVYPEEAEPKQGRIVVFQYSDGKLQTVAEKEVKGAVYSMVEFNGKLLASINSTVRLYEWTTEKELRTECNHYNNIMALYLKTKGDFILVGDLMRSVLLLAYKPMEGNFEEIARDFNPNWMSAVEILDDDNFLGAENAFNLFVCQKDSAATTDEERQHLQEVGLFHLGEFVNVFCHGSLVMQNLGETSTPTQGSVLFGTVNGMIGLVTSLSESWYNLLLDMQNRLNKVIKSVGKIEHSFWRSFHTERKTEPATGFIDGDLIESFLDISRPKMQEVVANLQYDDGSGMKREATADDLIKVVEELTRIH
SMILES,pKi (CRBN-DDB1),Dmax (CDK2) [%]
"O=C1CCC(N2Cc3ccc(CNC(=O)OCc4ccnc(-c5ccc(F)cc5)c4)cc3C2=O)C(=O)N1 (centres unmarked) [Compound 5, (2-(4-fluorophenyl)pyridin-4-yl)methyl((2-(2,6-dioxopiperidin-3-yl)-3-oxoisoindolin-5-yl)methyl)carbamate]",6.00 to 7.00,10 to 50
"O=C1CCC(N2Cc3ccc(CNC(=O)OCc4cccc(-c5ccc(C(F)(F)F)cc5)c4)cc3C2=O)C(=O)N1 (centres unmarked) [Compound 9, (4′-(trifluoromethyl)-[1,1′-biphenyl]-3-yl)methyl((2-(2,6-dioxopiperidin-3-yl)-3-oxoisoindolin-5-yl)methyl)carbamate]",6.00 to 7.00,50 to 80
"O=C1CCC(N2Cc3ccc(CNC(=O)OCc4cccc(-c5ccc(F)cc5)n4)cc3C2=O)C(=O)N1 (centres unmarked) [Compound 4, (6-(4-fluorophenyl)pyridin-2-yl)methyl((2-(2,6-dioxopiperidin-3-yl)-3-oxoisoindolin-5-yl)methyl)carbamate]",6.00 to 7.00,10 to 50
"CCOc1ccc(COC(=O)NCc2ccc3c(c2)C(=O)N(C2CCC(=O)NC2=O)C3)c(C)c1 (centres unmarked) [Compound 41, (4-ethoxy-2-methylphenyl)methyl N-{[2-(2,6-dioxopiperidin-3-yl)-3-oxo-2,3-dihydro-1H-isoindol-5-yl]methyl}carbamate]",6.00 to 7.00,10 to 50
"O=C1CCC(N2Cc3ccc(CNC(=O)OCc4ccc(C(F)(F)F)cc4)cc3C2=O)C(=O)N1 (centres unmarked) [Compound 59, [4-(trifluoromethyl)phenyl]methyl N-{[2-(2,6-dioxopiperidin-3-yl)-3-oxo-2,3-dihydro-1H-isoindol-5-yl]methyl}carbamate]",6.00 to 7.00,10 to 50
"N#Cc1cc(CNc2nnc(-c3ccccc3)o2)cc2c1CN(C1CCC(=O)NC1=O)C2=O (centres unmarked) [Compound 70, 2-(2,6-dioxopiperidin-3-yl)-1-oxo-6-(((5-phenyl-1,3,4-oxadiazol-2-yl)amino)methyl)isoindoline-4-carbonitrile]",6.00 to 7.00,10 to 50
"O=C1CCC(N2Cc3ccc(CNc4nnc(-c5ccc(OC(F)(F)F)cc5)o4)cc3C2=O)C(=O)N1 (centres unmarked) [Compound 71, 3-(1-oxo-6-(((5-(4-(trifluoromethoxy)phenyl)-1,3,4-oxadiazol-2-yl)amino)methyl)isoindolin-2-yl)piperidine-2,6-dione]",6.00 to 7.00,50 to 80
"CCC(C)(C)c1ccc(COC(=O)NCc2ccc3c(c2)C(=O)N(C2CCC(=O)NC2=O)C3)cc1 (centres unmarked) [Compound 36, [4-(2-methylbutan-2-yl)phenyl]methyl N-{[2-(2,6-dioxopiperidin-3-yl)-3-oxo-2,3-dihydro-1H-isoindol-5-yl]methyl}carbamate]",6.00 to 7.00,10 to 50
"CC(NC(=O)OCc1ccc(OC2CCOCC2)nc1)c1ccc2c(c1)C(=O)N(C1CCC(=O)NC1=O)C2 (centres unmarked) [Compound 16, (6-((tetrahydro-2H-pyran-4-yl)oxy)pyridin-3-yl)methyl (1-(2-(2,6-dioxopiperidin-3-yl)-3-oxoisoindolin-5-yl)ethyl)carbamate]",6.00 to 7.00,10 to 50

# The next lines start with the values.
pKi (CRBN-DDB1),Dmax (CDK2) [%],SMILES
≥ 7.00,10 to 50,"O=C1CCC(N2Cc3ccc(CNC(=O)OCc4ccc(OCC5CC5)cc4)cc3C2=O)C(=O)N1 (centres unmarked) [Compound 40, [4-(cyclopropylmethoxy)phenyl]methyl N-{[2-(2,6-dioxopiperidin-3-yl)-3-oxo-2,3-dihydro-1H-isoindol-5-yl]methyl}carbamate]"
6.00 to 7.00,10 to 50,"CCC(COC(=O)NCc1ccc2c(c1)C(=O)N(C1CCC(=O)NC1=O)C2)c1ccccc1 (centres unmarked) [Compound 67, 2-phenylbutyl N-{[2-(2,6-dioxopiperidin-3-yl)-3-oxo-2,3-dihydro-1H-isoindol-5-yl]methyl}carbamate]"
6.00 to 7.00,10 to 50,"O=C1CCC(N2Cc3ccc(CNC(=O)OCc4ccc([C@H]5CCC[C@@H]5O)cc4)cc3C2=O)C(=O)N1 (stereo partly drawn) [Compound 19, 4-((1R, 2S)-2-hydroxycyclopentyl) benzyl ((2-(2,6-dioxopiperidin-3-yl)-3-oxoisoindolin-5-yl)methyl)carbamate]"
6.00 to 7.00,10 to 50,"CC(C)COc1ccc(COC(=O)NCc2ccc3c(c2)C(=O)N(C2CCC(=O)NC2=O)C3)cc1 (centres unmarked) [Compound 46, [4-(2-methylpropoxy)phenyl]methyl N-{[2-(2,6-dioxopiperidin-3-yl)-3-oxo-2,3-dihydro-1H-isoindol-5-yl]methyl}carbamate]"
6.00 to 7.00,10 to 50,"O=C1CCC(N2Cc3ccc(CNC(=O)OCc4ccc(C#CC(F)(F)F)cc4)cc3C2=O)C(=O)N1 (centres unmarked) [Compound 50, [4-(3,3,3-trifluoroprop-1-yn-1-yl)phenyl]methyl N-{[2-(2,6-dioxopiperidin-3-yl)-3-oxo-2,3-dihydro-1H-isoindol-5-yl]methyl}carbamate]"
≥ 7.00,10 to 50,"O=C1CCC(N2Cc3ccc(CNC(=O)OCc4ccc(OC(F)F)cc4)cc3C2=O)C(=O)N1 (centres unmarked) [Compound 33, [4-(difluoromethoxy)phenyl]methyl N-{[2-(2,6-dioxopiperidin-3-yl)-3-oxo-2,3-dihydro-1H-isoindol-5-yl]methyl}carbamate]"
≥ 7.00,10 to 50,"CCCc1ccc(COC(=O)NCc2ccc3c(c2)C(=O)N(C2CCC(=O)NC2=O)C3)cc1 (centres unmarked) [Compound 43, (4-propylphenyl)methyl N-{[2-(2,6-dioxopiperidin-3-yl)-3-oxo-2,3-dihydro-1H-isoindol-5-yl]methyl}carbamate]"
≥ 7.00,10 to 50,"O=C1CCC(N2Cc3ccc(CNC(=O)OCc4ccc(C5(F)COC5)cc4)cc3C2=O)C(=O)N1 (centres unmarked) [Compound 48, [4-(3-fluorooxetan-3-yl)phenyl]methyl N-{[2-(2,6-dioxopiperidin-3-yl)-3-oxo-2,3-dihydro-1H-isoindol-5-yl]methyl}carbamate]"
≥ 7.00,10 to 50,"C#CCOc1ccc(COC(=O)NCc2ccc3c(c2)C(=O)N(C2CCC(=O)NC2=O)C3)cc1 (centres unmarked) [Compound 39, [4-(prop-2-yn-1-yloxy)phenyl]methyl N-{[2-(2,6-dioxopiperidin-3-yl)-3-oxo-2,3-dihydro-1H-isoindol-5-yl]methyl}carbamate]"
≥ 7.00,10 to 50,"O=C1CCC(N2Cc3ccc(CNC(=O)OCc4cccc(C(F)(F)F)c4)cc3C2=O)C(=O)N1 (centres unmarked) [Compound 31, [3-(trifluoromethyl)phenyl]methyl N-{[2-(2,6-dioxopiperidin-3-yl)-3-oxo-2,3-dihydro-1H-isoindol-5-yl]methyl}carbamate]"
≥ 7.00,10 to 50,"O=C1CCC(N2Cc3ccc(CNc4nnc(-c5ccccc5)o4)cc3C2=O)C(=O)N1 (centres unmarked) [Compound 72, 3-(1-oxo-6-(((5-phenyl-1,3,4-oxadiazol-2-yl)amino)methyl)isoindolin-2-yl)piperidine-2,6-dione]"
≥ 7.00,50 to 80,"O=C1CCC(N2Cc3c(Cl)cc(CNc4nnc(-c5ccc(OC(F)(F)F)cc5)o4)cc3C2=O)C(=O)N1 (centres unmarked) [Compound 73, 3-(4-chloro-1-oxo-6-(((5-(4-(trifluoromethoxy)phenyl)-1,3,4-oxadiazol-2-yl)amino)methyl)isoindolin-2-yl)piperidine-2,6-dione]"
≥ 7.00,10 to 50,"COc1ccc(COC(=O)NCc2ccc3c(c2)C(=O)N(C2CCC(=O)NC2=O)C3)cc1 (centres unmarked) [Compound 25, (4-methoxyphenyl)methyl N-{[2-(2,6-dioxopiperidin-3-yl)-3-oxo-2,3-dihydro-1H-isoindol-5-yl]methyl}carbamate]"
